The values that follow are results of earlier work, collected in patent publication US20230149425A1, “PROCESS AND THERAPEUTIC COMPOSITION FOR TREATING AND PREVENTING SEVERE INJECTION SITE REACTIONS” (Brii Biosciences, Inc., priority 2021, published 2023).

Molecules are shown by their SMILES.

The conditions of data set [1]: oral.
For data set [2] the following is noted: lactating women.

Regarding `C[C@]12CCC(=O)C=C1CC[C@@H]1[C@@H]2C(=O)C[C@@]2(C)[C@H]1CC[C@]2(O)C(=O)CO` [cortisone], the “safety and pain relief of injection in lactating women” value was “safe and efficient for pain relief”.

For the molecule `C[C@@]1(O)CC[C@H]2[C@H](CC[C@@H]3[C@@H]2CC[C@]2(C)[C@@H](C(=O)Cn4cc(C#N)cn4)CC[C@@H]32)C1` [SAGE-217], the “reduction of depressive symptoms in clinical trials” value in data set [1] (administration for 14 days) was “mixed results”. Also, the “adverse events versus placebo” value in data set [1] (clinical trials) is reported as “more adverse events than the placebo”.

As for `CC(=O)[C@H]1CC[C@H]2[C@@H]3CC[C@H]4C[C@H](O)CC[C@]4(C)[C@H]3CC[C@]12C` [brexanolone, 5α-pregnane-3α-ol-20-one], in data set [2], the “concentrations in milk and plasma” value is “low”; the “risk to breastfed infants” value is given as “low risk”.
